Source: patent US20190365700A1, “Methods for Isolating Tumor-Specific Immune Cells from a Subject for Adoptive Cell Therapy and Cancer Vaccines” (CRITITECH, INC., priority 2018, published 2019)
≈ marks a conversion by molar mass, not a printed value. Where “and” joins values, the source holds several entries; their conditions need not be identical. Equal values may be shown once. Marks after values point to notes of the source that are not given here.

Tests used:
[1] = test system: human renal cell adenocarcinoma (786-O cell line); assay: Renal cell adenocarcinoma xenograft: histology and IHC (viable carcinoma size, necrosis, lymphohistiocytic infiltrate); format: in vivo, Sprague-Dawley Rag2; Il2rg null (SRG®) rat
Excerpt: Microscopic Examination: Tissues fixed with 10% NBF were embedded in paraffin. Each tumor was cut into 2-3 pieces and embedded and sectioned together.

[2] = test system: UM-UC-3 bladder cancer cell line (ATCC-CRL-1749) tumors; assay: Human bladder cancer (UM-UC-3) mouse xenograft study: tumor volume, body weight, observations; format: in vivo, Hsd:Athymic Nude-Foxnlnu nude mice
Method: Tumor volume was determined with calipers. […] Animals were weighed 2×/week.
At day 18 after tumor implant, when average tumor size was between 50-325 mm^3, animals were sorted into five groups with equal average tumor sizes and were treated as shown in Table 25 below.
The second treatments (2nd cycle) occurred 7 days following first treatment (1st cycle) and third treatments (3rd cycle) occurred 14 days following the first treatment. The docetaxel solution IV was administered via the tail vein.
Vehicle (Control): Diluted 1 ml of the 1% Polysorbate 80/8% Ethanol in normal saline (0.9% Sodium Chloride for Injection) reconstitution solution with 1.5 mL of normal saline (0.9% Sodium Chloride for Injection, USP). […] Vigorously hand shook the vial with inversions for 1 minute. […] Allowed the suspension to sit undisturbed for at least 5 minutes to reduce entrapped air and foam. […] Vortexed to mix.

[3] = test system: UM-UC-3 bladder cancer cell line (ATCC-CRL-1749) tumors; assay: Bladder cancer xenograft: histology and IHC (viable carcinoma size, necrosis, macrophage infiltrate, TLS, necropsy volume); format: in vivo, Hsd:Athymic Nude-Foxnlnu nude mice
[4] = test system: human renal cell adenocarcinoma (786-O cell line); assay: Rat xenograft model of human renal cell adenocarcinoma: tumor volume, body weight, observations; format: in vivo, Sprague-Dawley Rag2; Il2rg null (SRG®) rat; conditions: IV docetaxel, 3 weekly cycles
[5] = test system: Renca syngeneic renal carcinoma
Excerpt: Animals were monitored as a group. […] When the endpoint was reached, all the animals were euthanized. […]

[6] = test system: Renca syngeneic renal carcinoma; assay: Renca syngeneic xenograft study: secondary tumor growth (groups 8-10); format: in vivo, female BALB/c mice; conditions: IV docetaxel doses
Method: The schedule in Table 39 was followed.
Cell Injection Volume: 0.1 mL/mouse. Age at Start Date: 8 to 12 weeks. […] Body Weight: 5/2 then tiwk to end. Caliper Measurement: tiwk to end. Double caliper measurements were performed for Groups 8-10. […] The group was not euthanized and recovery was allowed.
Endpoints: Groups 1-7: Endpoint TGI. Animals were monitored as a group.

[7] = test system: immune cells (CD45+, CD4+, CD8+, Treg, MDSC, M1 and M2 macrophages) in blood; assay: Renca study: flow cytometry of immune cells in blood; format: in vivo, female BALB/c mice; conditions: IV Docetaxel, individual animals
Method: Blood Collection: Collected full volume blood by terminal cardiac puncture under isoflurane anesthesia. Processed blood for: Whole Blood: anti-coagulant—K2EDTA, preservation—Cooled 4° C., shipping condition—4° C. (wet ice). Retained at CRL-NC for flow cytometry. See Flow panel in Table 40 below.
(§1) Peripheral blood and tumor tissue were collected for analysis via flow cytometry. Cell types analyzed included T-Cells: CD4+, CD8+(Tumor Suppression); Treg (Tumor Promotion); M1 Macrophages (Tumor Suppression); M2 Macrophages (Tumor Promotion); and […].

[8] = test system: immune cells (CD45+, CD4+, CD8+, Treg, MDSC, M1 and M2 macrophages) in tumor tissue; assay: Renca study: flow cytometry of immune cells in tumor tissue; format: in vivo, female BALB/c mice; conditions: individual animals, IV docetaxel group
Method: Organ Collection: Tumor (divide into 2 parts). […] Sent to laboratory for IHC staining. Part 2: preservation—processed to single cell suspension, shipping condition—4° C. (wet ice). Retained at CRL-NC for flow cytometry. See Flow panel in Table 40 below. Tumor preservation for early euthanasia in Groups 2-10: Excised tumor and surrounding area from the mammary fat pad area (cranial) to just past tumor (caudal). The region included the inguinal lymph node. Sectioned this sample every 4 mm from the cranial to caudal end and enclosed in separate cassettes labeled in order.
as §1

[9] = Solubility of the active in receptor fluid; format: physicochemical; conditions: 96 wt % PBS pH 7.4 and 4 wt % HPBCD
Method: The receptor fluid was degassed by filtering the receptor fluid through a ZapCap CR 0.2 μm membrane while pulling vacuum. The filtered receptor fluid was stirred for an additional 20 minutes while maintaining vacuum to ensure complete degassing.

[10] = IV Docetaxel 3 cycles, 2 animals
[11] = IV docetaxel 3 cycles, two cases

CC(=O)O[C@@]12CO[C@@H]1C[C@H](O)[C@@]1(C)C(=O)[C@H](O)C3=C(C)[C@@H](OC(=O)[C@H](O)[C@@H](NC(=O)OC(C)(C)C)c4ccccc4)C[C@@](O)([C@@H](OC(=O)c4ccccc4)[C@H]21)C3(C)C [Doce]
Number of animals with <5% of tissue showing necrosis ([1]; IV docetaxel, 2 animals): 2
Lymphohistiocytic infiltrate density: number of animals graded Mild ([1]; IV docetaxel, 2 animals, H/E and CD11b IHC): 2

CC(=O)O[C@@]12CO[C@@H]1C[C@H](O)[C@@]1(C)C(=O)[C@H](O)C3=C(C)[C@@H](OC(=O)[C@H](O)[C@@H](NC(=O)OC(C)(C)C)c4ccccc4)C[C@@](O)([C@@H](OC(=O)c4ccccc4)[C@H]21)C3(C)C [docetaxel]
tumor volumes ([2]; Docetaxel IV 30 mg/kg, 3 cycles, 61 days): decreased initially
effectiveness by initial tumor size ([2]; Docetaxel IV 3 cycles): somewhat effective at treating small tumors, but not very effective in treating large tumors
initial animal weight loss ([2]; Docetaxel IV 3 cycles vs nDoce IT 1, 2, 3 cycles): generally greater
signs of peripheral neuropathy ([2]; Docetaxel IV 3 cycles vs nDoce IT 3 cycles): greater signs of peripheral neuropathy
general histological observation (H&E) ([3]; Docetaxel Solution IV 3 cycles): many viable appearing tumor masses with some macrophage and occasional lymphocytic response along with some tumor necrosis
animals with 11-50% of tumor showing necrosis [3, 10]: 1
animals with 50-90% of tumor showing necrosis [3, 10]: 1
animals with maximum size of viable invasive carcinoma on the slide >10 mm [3, 10]: 2*
Macrophage infiltrate density: number of animals graded Mild ([3]; IV Docetaxel 3 cycles, surrounding non-neoplastic tissue, H&E and CD68 IHC): 2
TLSs [3, 11]: no TLSs present
tumor masses, maximum dimension on the slide [3, 11]: 11 mm and 15 mm
tumor growth compared to vehicle control [4]: partial tumor growth inhibition
histology vs vehicle control (H&E) ([1]; Docetaxel (IV) 3 cycles, female rat): no difference
Number of animals with residual viable carcinoma >10 mm on slide ([1]; IV docetaxel, 2 animals): 2
tumor volume compared to vehicle ([5]; IV docetaxel Day 1 (10 mg/kg) and Day 11 (5 mg/kg)): No difference
toxicity leading to modified administration schedule ([5]; mouse, in vivo, iv): systemic toxicity
growth rate of the secondary Renca tumors [6]: did not reduce the growth rate
CD8 (% of CD45) [7]: 1.18 % of CD45 and 1.46 % of CD45 and 1.58 % of CD45 and 1.55 % of CD45 and 1.59 % of CD45 and 0.55 % of CD45 and 1.28 % of CD45 and 1.03 % of CD45 and 1.02 % of CD45 and 0.73 % of CD45
CD8 Count [7]: 17438 and 12556 and 18524 and 4199 and 7615 and 8711 and 14504 and 9765 and 8882 and 12561
CD45 (% of Live) [7]: 98.5 % of Live and 80.9 % of Live and 97.9 % of Live and 95.7 % of Live (2×) and 96.1 % of Live and 95.5 % of Live and 95.6 % of Live and 97 % of Live and 96.4 % of Live
CD45 Count [7]: 1360000 (2×) and 1180000 and 1200000 and 1010000 and 348468 and 983000 and 1340000 and 1210000 and 968000
Conv CD4 (% of CD45) [7]: 2.49 % of CD45 and 3.95 % of CD45 and 3.1 % of CD45 and 2.64 % of CD45 and 2.38 % of CD45 and 1.58 % of CD45 and 3.25 % of CD45 and 1.32 % of CD45 and 2.46 % of CD45 and 1.77 % of CD45
Conv CD4 Count [7]: 44244 and 33048 and 31633 and 9629 and 12646 and 22949 and 34177 and 22034 and 21457 and 27808
Live Count [7]: 1420000 and 1220000 and 1250000 and 1030000 and 350478 and 1390000 and 1010000 and 1360000 and 1260000 and 997000
M1 Mac (% of CD45) [7]: 15.1 % of CD45 and 9.39 % of CD45 and 12.3 % of CD45 and 6.95 % of CD45 and 7.96 % of CD45 and 6.79 % of CD45 and 9.93 % of CD45 and 10.7 % of CD45 and 9.78 % of CD45 and 9.15 % of CD45
M1 Mac Count [7]: 135234 and 150642 and 83214 and 124451 and 18526 and 145555 and 84022 and 122157 and 110868 and 43948
M2 Mac (% of CD45) [7]: 0.12 % of CD45 and 0.054 % of CD45 and 0.066 % of CD45 and 0.14 % of CD45 and 0.17 % of CD45 and 0.2 % of CD45 and 0.056 % of CD45 and 0.48 % of CD45 and 0.07 % of CD45 and 0.19 % of CD45
M2 Mac Count [7]: 765 and 815 and 1633 and 582 and 373 and 875 and 257 and 2069 and 2323 and 512
MDSC (% of CD45) [7]: 72.7 % of CD45 and 64.8 % of CD45 and 63.3 % of CD45 and 75.9 % of CD45 and 72.8 % of CD45 and 79 % of CD45 and 73.4 % of CD45 and 72.5 % of CD45 and 77.7 % of CD45 and 76.3 % of CD45
MDSC Count [7]: 1000000 (2×) and 871000 and 909000 and 742000 and 255851 and 734000 (2×) and 1010000 and 925000
Treg (% of CD45) [7]: 0.092 % of CD45 and 0.22 % of CD45 and 0.13 % of CD45 and 0.073 % of CD45 and 0.035 % of CD45 and 0.078 % of CD45 and 0.087 % of CD45 and 0.047 % of CD45 and 0.1 % of CD45 and 0.071 % of CD45
Treg Count [7]: 1182 and 578 and 872 and 461 and 222 and 871 and 1300 and 870 and 856 and 992
CD8 (% of CD45) [8]: 0.75% and 0.5% and 0.28% and 0.31% (2×) and 0.061% and 0.32% and 0.45% and 0.81% and 0.33%
CD8 Count [8]: 33 and 40 and 26 and 193 and 9 and 145 and 36 and 214 and 137 and 270
CD45 (% of Live) [8]: 38.2% and 42.8% and 52.7% and 68.9% and 74.1% and 57.8% and 32.5% and 63.3% and 73% and 67.2%
CD45 Count [8]: 4375 and 8052 and 9275 and 62614 and 14728 and 45332 and 8088 and 26310 and 41555 and 86029
Conv CD4 (% of CD45) [8]: 1.23% and 1.15% and 1.51% and 0.44% and 0.16% and 0.58% and 0.62% and 2.55% and 1.65% and 0.59%
Conv CD4 Count [8]: 54 and 93 and 140 and 275 and 23 and 265 and 50 and 670 and 687 and 509
Live Count [8]: 11443 and 18796 and 17590 and 90940 and 19863 and 78365 and 24901 and 41595 and 56947 and 128055
M1 Mac (% of CD45) [8]: 10.5% and 6.97% and 8.59% and 8.44% and 3.34% and 9.16% and 8.65% and 7.47%
M1 Mac Count [8]: 460 and 561 and 797 and 5285 and 492 and 4154 and 700 and 3186 and 5446 and 6428
M2 Mac (% of CD45) [8]: 28% and 25.2% and 18.6% and 25.3% and 2.66% and 54.1% and 8.62% and 26.9% and 52.8% and 67.2%
M2 Mac Count [8]: 1223 and 2030 and 1727 and 15846 and 392 and 24543 and 697 and 7074 and 21953 and 57825
MDSC (% of CD45) [8]: 25.1% and 32.8% and 42.5% and 44% and 83.3% and 20% and 70.4% and 37.3% and 10.4%
MDSC Count [8]: 1098 and 2644 and 3940 and 27578 and 12265 and 9063 and 5696 and 9821 and 4302 and 11067
Treg (% of CD45) [8]: 1.58% and 0.55% and 0.32% and 0.62% and 0.16% and 0.54% and 0.21% and 1.05% and 0.42% and 0.6%
Treg Count [8]: 69 and 44 and 30 and 386 and 23 and 244 and 17 and 276 and 176 and 520

CC(=O)O[C@H]1C(=O)[C@@]2(C)[C@H]([C@H](OC(=O)c3ccccc3)[C@]3(O)C[C@H](OC(=O)[C@H](O)[C@@H](NC(=O)c4ccccc4)c4ccccc4)C(C)=C1C3(C)C)[C@]1(OC(C)=O)CO[C@@H]1C[C@@H]2O [paclitaxel]
solubility in the receptor fluid [9]: ~0.4 µg/mL (≈ 0.468 µM)
